Measurements published in US20230085307A1, “PYRIDAZINONE COMPOUND AND HERBICIDE” (NISSAN CHEMICAL CORPORATION, priority 2019, published 2023).

What was measured:
Japanese bulrush = test: Test Example 1: herbicidal activity, application before weed generation under submerged conditions (Table 16, symbol B); assay type: in vivo, Japanese bulrush (Schoenoplectus juncoides); details: 320 g/ha applied herbicide
Description: (§1) [Test Example 1] Herbicidal Activity Test by Application before Weed Generation under Submerged Conditions After alluvial soil was placed into 1/10000 are of Wagner pot, water was poured and mixed to form a submerged condition having a water depth of 4 cm. Seeds of late watergrass, Japanese bulrush, and oval-leafed pondweed were sowed in a mixed manner in the aforementioned pot, and then 2.5 leaf stage rice plant seedlings were transplanted thereto. On the day of sowing seeds, the emulsion agent of the compound of the present invention prepared according to Formulation Example 2 was diluted with water so as to achieve a predetermined herbicide amount, and the diluted emulsion agent was applied to the surface of the water. The pot was placed in a greenhouse at 25° C. to 30° C. for growth of the plants. Three weeks after the herbicide application, the effect of the herbicide on each plant was evaluated according to the following criteria. Evaluation Criteria 5: Herbicidal rate of 90% or more (almost completely withered) 4: Herbicidal rate of 70% or more and less than 90% 3: Herbicidal rate of 40% or more and less than 70% 2: Herbicidal rate of 20% or more and less than 40% 1: Herbicidal rate of 5% or more and less than 20% 0: Herbicidal rate of 5% or less (almost no effect)

Chinese sprangletop = test: Test Example 3: herbicidal effect by foliage application, Wagner pot (Table 18, symbol D); assay type: in vivo, chinese sprangletop (Leptochloa chinensis); details: amount of applied herbicide 320 g/ha
Method in brief: (§2)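 Plants were sown in alluvial soil held under 0.1–0.5 cm standing water and grown 14 days in a greenhouse at 25–30 °C. An emulsifiable formulation, water-diluted to the set dose, was then sprayed onto the foliage, and effects were scored three weeks later using previously defined criteria.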

rice flat sedge = test: Test Example 3: herbicidal effect by foliage application, Wagner pot (Table 18, symbol E); assay type: in vivo, rice flat sedge (Cyperus iria); details: amount of applied herbicide 320 g/ha
Method in brief: as §2

oval-leafed pondweed = test: Test Example 1: herbicidal activity, application before weed generation under submerged conditions (Table 16, symbol C); assay type: in vivo, oval-leafed pondweed (Monochoria vaginalis); details: 320 g/ha applied herbicide
Description: as §1

late watergrass = test: Test Example 1: herbicidal activity, application before weed generation under submerged conditions (Table 16, symbol A); assay type: in vivo, late watergrass (Echinochloa oryzicola); details: 320 g/ha applied herbicide
Description: as §1

barnyard grass = test: Test Example 3: herbicidal effect by foliage application, Wagner pot (Table 18, symbol H); assay type: in vivo, barnyard grass (Echinochloa crus-galli); details: amount of applied herbicide 320 g/ha
Method in brief: as §2

Row | SMILES | Herbicidal effect on B: Japanese bulrush (grade 0-5) (Japanese bulrush) | herbicidal effect on D: Chinese sprangletop (Chinese sprangletop) | herbicidal effect on E: rice flat sedge (rice flat sedge) | Herbicidal effect on C: oval-leafed pondweed (grade 0-5) (oval-leafed pondweed) | Herbicidal effect on A: late watergrass (grade 0-5) (late watergrass) | herbicidal effect on H: barnyard grass (barnyard grass)
1 | CC[S+]([O-])Cc1ccc(-c2sc3ccc(F)cc3c2-c2c(O)c(C)nn(C)c2=O)cc1 (stereo not drawn) [2-333] | 0 (Herbicidal rate of 5% or less (almost no effect)) | 2 (Herbicidal rate of 20% or more and less than 40%) | 5 (Herbicidal rate of 90% or more (almost completely withered)) | 0 (Herbicidal rate of 5% or less (almost no effect)) | 2 (Herbicidal rate of 20% or more and less than 40%) | 5 (Herbicidal rate of 90% or more (almost completely withered))
2 | CCS(=O)(=O)Cc1ccc(-c2sc3ccc(F)cc3c2-c2c(O)c(C)nn(C)c2=O)cc1 [2-335] | 0 (Herbicidal rate of 5% or less (almost no effect)) | 3 (Herbicidal rate of 40% or more and less than 70%) | 5 (Herbicidal rate of 90% or more (almost completely withered)) | 0 (Herbicidal rate of 5% or less (almost no effect)) | 3 (Herbicidal rate of 40% or more and less than 70%) | 5 (Herbicidal rate of 90% or more (almost completely withered))
